{
  "source": "patent US6730703B2",
  "about": "“Dual inhibitors of cholesteryl ester and wax ester synthesis for sebaceous gland disorders” (Warner-Lambert Company, priority 2000, dated 2004)",
  "key": {"[1]": {"tested_on": "ACAT (acyl-Coenzyme A: cholesteryl acyltransferase)", "experimental": "(§1) C. [4-^14C]Cholesteryl or [(1-^14C]Hexadecanol. Evaporate the toluene from the vial. Re-suspend radiolabel in 0.1 mL 2-propanol.\nD. Oleoyl Coenzyme A (1 mM in sucrose buffer). […] Note: Store at −10° C. Dilute 5-fold to 200 μM with sucrose buffer just prior to assay.\nE. [^14C]Cholesteryl—Labeled Microsomes or [^14C]Hexadecanol—Labeled Microsomes. Dilute a vial of stock microsomes to 4 mg protein per milliliter with sucrose buffer. […] Flush syringe once with microsome solution. Determine dpm in small aliquot of solution by liquid scintillation counting (LSC). Need approximately 4×10^6 dpm/mL in the microsome solution.\nG. Test Compound Solutions. Test compounds are weighed to make either 1 mM or 4 mM stock solutions in dimethylsulfoxide (DMSO). These solutions are used to prepare DMSO solutions containing 40 times the concentration of compound to be tested. […]\n(§2) h) Transfer 40 μL of the acidified solution to the pre-absorbent area of Whatman LK6D silica gel TLC plates, which are then dried on a hot plate for 5 minutes and developed in trimethylpentane/diethyl ether/acetic acid (75:25:2). The bands containing radiolabel are detected and quantitated by phosphorimaging with a Molecular Dynamics phosphorimager.\n(§3) TLC will resolve free alcohol from its ester. The relative amount of radioactivity in each of those bands is determined by phosphorimaging. […]"}, "[2]": {"tested_on": "AFAT (acyl-Coenzyme A: fatty alcohol acyltransferase)", "experimental": "(§4) a) The rats or mice are anesthetized with ether, and the PGs are removed and placed in a beaker containing wash buffer (ice cold).\n(§5) b) As soon as possible, the PGs are homogenized in a Potter-Elvehjem homogenizer with 15 mL of homogenizing buffer. The homogenizer is kept in a small ice bath. Work the plunger until it reaches the bottom of the tube 10 times.\n(§6) k) Add 1 mL of 0.2 M KPO4 buffer pH 7.4 to half of the bottles in an ice bath. Scrape the whole pellet loose with a teflon rod and transfer to a 15 mL homogenizer. Wash bottle with 1 mL of buffer and transfer to one of the bottles that has a pellet but no buffer. Homogenize gently by hand. Aliquot into Cryovials (Nalgene™) and store in liquid nitrogen. The microsomes remain active for at least 2 years.\n(§7) m) Determine the protein concentration of the homogenate by the Lowry method. […] Desired protein concentration is 20 mg/mL rat or mouse PG microsomes.\nas §1\n(§8) D. Oleoyl Coenzyme A (1 mM in sucrose buffer). Dissolve 10.3 mg oleoyl coenzyme A (Sigma 0-7002) in 10 mL sucrose buffer. Note: Store at −10° C. Dilute 5-fold to 200 μM with sucrose buffer just prior to assay.\n(§9) E. [^14C]Cholesteryl—Labeled Microsomes or [^14C]Hexadecanol—Labeled Microsomes. Dilute a vial of stock microsomes to 4 mg protein per milliliter with sucrose buffer. For every 1 mL of diluted microsome solution, use glass syringe (Hamilton, [sequence], 1702) and transfer 2.5 μL of radiolabel to diluted microsomes by submerging syringe needle in the microsome solution and swirling while ejecting syringe contents. Flush syringe once with microsome solution. Determine dpm in small aliquot of solution by liquid scintillation counting (LSC). Need approximately 4×10^6 dpm/mL in the microsome solution.\n(§10) G. Test Compound Solutions. Test compounds are weighed to make either 1 mM or 4 mM stock solutions in dimethylsulfoxide (DMSO). These solutions are used to prepare DMSO solutions containing 40 times the concentration of compound to be tested. These solutions may be prepared 24 hours prior to the assay and stored at room temperature.\n(§11) a) Duplicate samples are prepared by adding 5 μL of test compound solution to each of two assay tubes. Controls and blanks receive 5 μL of DMSO. […]\nas §2, §3"}, "[3]": {"biological_target": "AFAT (acyl-Coenzyme A: fatty alcohol acyltransferase)", "assay": "Inhibition of wax ester (WE) synthesis in mouse preputial gland microsomes", "settings": "for IC50: read-out: Inhibition of Wax Ester (WE) Synthesis IC50, mouse preputial microsome preparation, [14C]hexadecanol label, oleoyl coenzyme A", "experimental": "as §4, §5, §6, §7, §1, §8, §9, §10, §11, §2, §3"}},
  "note": "Read-outs that look alike come from different tables or passages of the source.",
  "data": [
    {"smiles": "CC(C)c1cc(C(C)C)c(CC(=O)NS(=O)(=O)Oc2c(C(C)C)cccc2C(C)C)c(C(C)C)c1", "note": "[Compound 1, [(2,4,6-triisopropyl-phenyl)-acetyl]-sulfamic acid 2,6-diisopropyl-phenyl ester]", "values": [
      {"measurement": "Inhibition of liver ACAT (in words)", "setting": "[1]; inhibition curves of FIG. 1, printed as rat liver ACAT", "value": "potent inhibitors of rat liver ACAT"},
      {"measurement": "IC50", "setting": "[1]; read-out: Inhibition of Cholesteryl Ester (CE) Synthesis IC50, mouse liver microsome preparation, [14C]cholesteryl label, oleoyl coenzyme A", "value": 0.09, "unit": "µM"},
      {"measurement": "Inhibition of WE synthesis in mouse preputial gland microsomes (in words)", "setting": "[2]", "value": "unexpectedly inhibits WE synthesis"},
      {"measurement": "IC50", "setting": "[3]", "value": 13.9, "unit": "µM"}
    ]},
    {"smiles": "CCCCCCCCCCC(C)(C)C(=O)Nc1c(OC)cc(OC)cc1OC", "note": "[Compound 2, 2,2-dimethyl-N-(2,4,6-trimethoxyphenyl)-dodecanamide]", "values": [
      {"measurement": "Inhibition of WE synthesis in mouse preputial gland microsomes (in words)", "setting": "[3]; inhibition curves of FIG. 1, 0.01 μM to 100 μM", "value": "no inhibition of WE synthesis"},
      {"measurement": "IC50", "setting": "[3]", "value": "> 100", "unit": "µM"}
    ]}
  ]
}
